pIC50: −log10 of the molar value. Structures can show the parent of a compound that is named as a salt.
Experiments:
[1] = tested on: BT474 (human breast carcinoma); test: In vitro tumor cell proliferation assay (Cell Titer-Glo luminescent cell viability), BT474; format: cell-based; settings: BT-474, 72 h, BT474 cells, 72 hours of drug exposure, ATP luminescence readout, read-out: IC50, anti-proliferative activity (inhibition of cell proliferation)
Outline: (§1)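 Proliferation inhibition was measured as ATP-dependent luciferase signal after cells in RPMI with 10% FBS received test compound for 72 h at 37° C. Final concentrations spanned […] to 64 pM in 0.1% DMSO; IC50 values were derived.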

[2] = tested on: A431 cells (human epidermoid carcinoma); test: In vitro tumor cell proliferation assay (Cell Titer-Glo luminescent cell viability), A431; format: cell-based; settings: A-431, 72 h, 72 hours of drug exposure, ATP luminescence readout, read-out: IC50, anti-proliferative activity (inhibition of cell proliferation)
Outline: as §1

Row | Compound | pIC50 [1] | pIC50 [2]
1 | COCCNCCn1cc2c(n1)CCc1c-2sc2ncnc(Nc3ccc(F)c(Cl)c3)c12 [Example 4, N-(3-chloro-4-fluorophenyl)-2-{2-[(2-methoxyethyl)amino]ethyl}-4,5-dihydro-2H-pyrimido[5′,4′:4,5]thieno[2,3-e]indazol-6-amine] | ≥ 5.30 | ≥ 5.30
2 | Clc1cc(Nc2ncnc3sc4c(c23)CCc2c-4cnn2CCBr)ccc1OCc1ccccn1 [Example 110, 3-(2-bromoethyl)-N-[3-chloro-4-(pyridin-2-ylmethoxy)phenyl]-4,5-dihydro-3H-pyrimido[5′,4′:4,5]thieno[2,3-e]indazol-6-amine] | ≥ 6.00 | ≥ 5.30
3 | OCCn1ncc2c1CCc1c-2sc2ncnc(Nc3ccc(F)c(Cl)c3)c12 [Example 88, 2-{6-[(3-chloro-4-fluorophenyl)amino]-4,5-dihydro-3H-pyrimido[5′,4′:4,5]thieno[2,3-e]indazol-3-yl}ethanol] | ≥ 5.30 | ≥ 5.30
4 | COCCN1CCN(C(=O)Cn2ncc3c2CCc2c-3sc3ncnc(Nc4ccc(OCc5cccc(F)c5)c(Cl)c4)c23)CC1 [Example 203, N-{3-chloro-4-[(3-fluorobenzyl)oxy]phenyl}-3-{2-[4-(2-methoxyethyl)piperazin-1-yl]-2-oxoethyl}-4,5-dihydro-3H-pyrimido[5′,4′:4,5]thieno[2,3-e]indazol-6-amine] | ≥ 6.00 | ≥ 4.30
5 | CN(C)C1CCN(C(=O)Cn2ncc3c2CCc2c-3sc3ncnc(Nc4ccc(OCc5cccc(F)c5)c(Cl)c4)c23)C1 (stereo in doubt) [Example 211, N-{3-chloro-4-[(3-fluorobenzyl)oxy]phenyl}-3-{2-[(3R)-3-(dimethylamino)pyrrolidin-1-yl]-2-oxoethyl}-4,5-dihydro-3H-pyrimido[5′,4′:4,5]thieno[2,3-e]indazol-6-amine] | ≥ 6.00 | ≥ 5.30
6 | Cc1cc(Oc2ccc(Nc3ncnc4sc5c(c34)CCc3nn(CCN4CCN(C)CC4)cc3-5)c(F)c2)ccn1 [Example 341, N-{2-fluoro-4-[(2-methylpyridin-4-yl)oxy]phenyl}-2-[2-(4-methylpiperazin-1-yl)ethyl]-4,5-dihydro-2H-pyrimido[5′,4′:4,5]thieno[2,3-e]indazol-6-amine] | ≥ 5.30 | ≥ 4.30
7 | Cc1cccc(COc2ccc(Nc3ncnc4sc5c(c34)CCc3nn(CCO)cc3-5)cc2Cl)n1 [Example 115] | ≥ 6.00 | ≥ 4.30
8 | CN1CCN(C(=O)Cn2cc3c(n2)CCc2c-3sc3ncnc(Nc4ccc(OCc5cccc(F)c5)c(Cl)c4)c23)CC1 [Example 183, N-{3-chloro-4-[(3-fluorobenzyl)oxy]phenyl}-2-[2-(4-methylpiperazin-1-yl)-2-oxoethyl]-4,5-dihydro-2H-pyrimido[5′,4′:4,5]thieno[2,3-e]indazol-6-amine] | ≥ 6.00 | ≥ 5.30
9 | CN1CCC(CCn2cc3c(n2)CCc2c-3sc3ncnc(Nc4ccc(OCc5cccc(F)c5)c(Cl)c4)c23)CC1 [Example 255, N-{3-chloro-4-[(3-fluorobenzyl)oxy]phenyl}-2-[2-(1-methylpiperidin-4-yl)ethyl]-4,5-dihydro-2H-pyrimido[5′,4′:4,5]thieno[2,3-e]indazol-6-amine] | ≥ 6.00 | ≥ 5.30
10 | OCC(CO)N1CCC(CCn2cc3c(n2)CCc2c-3sc3ncnc(Nc4ccc(OCc5cccc(F)c5)c(Cl)c4)c23)CC1 [Example 249, 2-(4-{2-[6-({3-chloro-4-[(3-fluorobenzyl)oxy]phenyl}amino)-4,5-dihydro-2H-pyrimido[5′,4′:4,5]thieno[2,3-e]indazol-2-yl]ethyl}piperidin-1-yl)propane-1,3-diol] | ≥ 6.00 | ≥ 5.30
11 | OCCN(CCO)CCn1cc2c(n1)CCc1c-2sc2ncnc(Nc3ccc(OCc4cccc(F)c4)c(Cl)c3)c12 [Example 64, 2,2′-({2-[6-({3-chloro-4-[(3-fluorobenzyl)oxy]phenyl}amino)-4,5-dihydro-2H-pyrimido[5′,4′:4,5]thieno[2,3-e]indazol-2-yl]ethyl}imino)diethanol] | ≥ 6.00 | ≥ 5.30
12 | Clc1cc(Nc2ncnc3sc4c(c23)CCc2n[nH]cc2-4)ccc1OCc1ccccn1 [Example 109, N-[3-chloro-4-(pyridin-2-ylmethoxy)phenyl]-4,5-dihydro-2H-pyrimido[5′,4′:4,5]thieno[2,3-e]indazol-6-amine] | ≥ 6.00 | ≥ 4.30
13 | CN(C)[C@H]1CCN(CC(=O)N2CCC(Cn3cc4c(n3)CCc3c-4sc4ncnc(Nc5ccc(OCc6cccc(F)c6)c(Cl)c5)c34)CC2)C1 [Example 235, N-{3-chloro-4-[(3-fluorobenzyl)oxy]phenyl}-2-[(1-{[(3S)-3-(dimethylamino)pyrrolidin-1-yl]acetyl}piperidin-4-yl)methyl]-4,5-dihydro-2H-pyrimido[5′,4′:4,5]thieno[2,3-e]indazol-6-amine] | ≥ 6.00 | ≥ 5.30
14 | O[C@H](CN1CC[C@H](O)C1)Cn1cc2c(n1)CCc1c-2sc2ncnc(Nc3ccc(OCc4cccc(F)c4)c(Cl)c3)c12 [Example 150, (3S)-1-{(2R)-3-[6-({3-chloro-4-[(3-fluorobenzyl)oxy]phenyl}amino)-4,5-dihydro-2H-pyrimido[5′,4′:4,5]thieno[2,3-e]indazol-2-yl]-2-hydroxypropyl}pyrrolidin-3-ol trifluoroacetate (salt)] | ≥ 6.00 | ≥ 4.30
15 | CN1CCN(CCn2cc3c(n2)CCc2c-3sc3ncnc(Nc4ccc(OC(F)(F)F)c(Cl)c4)c23)CC1 [Example 53, N-[3-chloro-4-(trifluoromethoxy)phenyl]-2-[2-(4-methylpiperazin-1-yl)ethyl]-4,5-dihydro-2H-pyrimido[5′,4′:4,5]thieno[2,3-e]indazol-6-amine] | ≥ 6.00 | ≥ 5.30
16 | Fc1cccc(Cn2ncc3cc(Nc4ncnc5sc6c(c45)CCc4nn(CCN5CCNCC5)cc4-6)ccc32)c1 [Example 284, N-[1-(3-fluorobenzyl)-1H-indazol-5-yl]-2-(2-piperazin-1-ylethyl)-4,5-dihydro-2H-pyrimido[5′,4′:4,5]thieno[2,3-e]indazol-6-amine] | ≥ 6.00 | ≥ 5.30
17 | COCCNC[C@@H](O)Cn1cc2c(n1)CCc1c-2sc2ncnc(Nc3ccc(OCc4cccc(F)c4)c(Cl)c3)c12 [Example 146, (2R)-1-[6-({3-chloro-4-[(3-fluorobenzyl)oxy]phenyl}amino)-4,5-dihydro-2H-pyrimido[5′,4′:4,5]thieno[2,3-e]indazol-2-yl]-3-[(2-methoxyethyl)amino]propan-2-ol] | ≥ 6.00 | ≥ 4.30
18 | COCCN(C)CCCn1ncc2c1CCc1c-2sc2ncnc(Nc3ccc(OCc4cccc(F)c4)c(Cl)c3)c12 [Example 270, N-{3-chloro-4-[(3-fluorobenzyl)oxy]phenyl}-3-{3-[(2-methoxyethyl)(methyl)amino]propyl}-4,5-dihydro-3H-pyrimido[5′,4′:4,5]thieno[2,3-e]indazol-6-amine] | ≥ 6.00 | ≥ 4.30
19 | COCCN1CCN(CCn2cc3c(n2)CCc2c-3sc3ncnc(Nc4ccc(OCc5cccc(F)c5)c(Cl)c4)c23)CC1 [Example 122, N-{3-chloro-4-[(3-fluorobenzyl)oxy]phenyl}-2-{2-[4-(2-methoxyethyl)piperazin-1-yl]ethyl}-4,5-dihydro-2H-pyrimido[5′,4′:4,5]thieno[2,3-e]indazol-6-amine] | ≥ 6.00 | ≥ 5.30
20 | CC(C)(C)OC(=O)NCC(=O)OCCn1cc2c(n1)CCc1c-2sc2ncnc(Nc3ccc(OCc4cccc(F)c4)c(Cl)c3)c12 [Example 314, 2-[6-({3-chloro-4-[(3-fluorobenzyl)oxy]phenyl}amino)-4,5-dihydro-2H-pyrimido[5′,4′:4,5]thieno[2,3-e]indazol-2-yl]ethyl N-(tert-butoxycarbonyl)glycinate] | ≥ 6.00 | ≥ 5.30
21 | CCNC[C@@H](O)Cn1ncc2c1CCc1c-2sc2ncnc(Nc3ccc(OCc4cccc(F)c4)c(Cl)c3)c12 [Example 169, (2R)-1-[6-({3-chloro-4-[(3-fluorobenzyl)oxy]phenyl}amino)-4,5-dihydro-3H-pyrimido[5′,4′:4,5]thieno[2,3-e]indazol-3-yl]-3-(ethylamino)propan-2-ol trifluoroacetate (salt)] | ≥ 6.00 | ≥ 4.30
22 | OCCn1ncc2c1CCc1c-2sc2ncnc(Nc3ccc4c(cnn4Cc4ccccc4)c3)c12 [Example 310, 2-{6-[(1-benzyl-1H-indazol-5-yl)amino]-4,5-dihydro-3H-pyrimido[5′,4′:4,5]thieno[2,3-e]indazol-3-yl}ethanol] | ≥ 6.00 | ≥ 5.30
23 | Cc1cccc(COc2ccc(Nc3ncnc4sc5c(c34)CCc3nn(CCN4CCN(C)CC4)cc3-5)cc2Cl)c1 [Example 330, N-{3-chloro-4-[(3-methylbenzyl)oxy]phenyl}-2-[2-(4 methylpiperazin-1-yl)ethyl]-4,5-dihydro-2H-pyrimido[5′,4′:4,5]thieno[2,3-e]indazol-6-amine] | ≥ 5.30 | ≥ 5.30
24 | Clc1cc(Nc2ncnc3sc4c(c23)CCc2nn(CCN3CCOCC3)cc2-4)ccc1OCc1ccccc1 [Example 126, N-[4-(benzyloxy)-3-chlorophenyl]-2-(2-morpholin-4-ylethyl)-4,5-dihydro-2H-pyrimido[5′,4′:4,5]thieno[2,3-e]indazol-6-amine] | ≥ 6.00 | ≥ 4.30
25 | CN(C)CCCCNCCn1cc2c(n1)CCc1c-2sc2ncnc(Nc3ccc(F)c(Cl)c3)c12 [Example 17, N′-(2-{6-[(3-chloro-4-fluorophenyl)amino]-4,5-dihydro-2H-pyrimido[5′,4′:4,5]thieno[2,3-e]indazol-2-yl}ethyl)-N,N-dimethylbutane-1,4-diamine] | ≥ 5.30 | ≥ 5.30

Source: US8207172B2 (Bayer Intellectual Property GmbH, priority 2004, dated 2012)
